Experimental data from patent publication US12570608B2, “Compound derived from quinoline, use of a compound, composition and method for the treatment or prophylaxis of a condition caused by a blood parasite” (FUNDÃÇAO OSWALDO CRUZ, priority 2019, dated 2026).
“And” between values parts separate entries of the source, which are not always exact repeats. Equal values may be shown once. Read-outs that look alike come from different tables or passages of the source.

Key:
[1] = test system: β-hematin formation; assay: Inhibition of β-hematin formation (lipid-catalysed heme crystallization); format: biochemical
Procedure: Briefly, drug stock solutions were prepared in DMSO, used at a final concentration of up to 30 mM A heme stock (10 mM) was made in DMSO and diluted to […] with 100 mM sodium acetate (pH 4.8).
The plates were incubated at 37° C. for 2 h to allow crystallization, followed by the addition of 100 μL of 200 mM sodium bicarbonate (pH 9.1) to solubilize any remaining monomeric heme. After incubation for 30 min at room temperature, the amount of solubilized monomeric heme was determined by measuring the absorbance at 405 nm.
Finally, 20 μL of 1 M sodium hydroxide was added to the plates to dissolve the crystals formed. The absorbance was read at 405 nm to determine the total amount of heme present in each well.
The inhibition of heme crystallization was determined as a function of the amount of monomeric heme that was not crystallized divided by the total amount of heme present in the test mixture. The results are expressed as IC50 values based on the percentage inhibition of β-hematin formation by compounds GIQ, CEQ, PCQ and DAQ. Each test was performed in triplicate in at least two different experiments.

[2] = test system: P. falciparum 3D7; assay: Antiplasmodial SYBR Green assay, CQ-sensitive strain; format: cell-based, Plasmodium falciparum; settings: for IC50: Plasmodium falciparum; for Selectivity index 3D7: ratio between MDL50 and IC50, 3D7
Procedure: Each test was performed in triplicate in at least two different experiments.
(§1) Briefly, plates were centrifuged at 700 g for 5 min in room temperature to remove medium, washed with PBS, and incubated for 30 min with lysis buffer solution and SYBR Green I DNA dye (1:20000). The fluorescence of the uninfected erythrocytes was considered as background.
(§2) The half maximum inhibitory concentration of the drug (IC50) was estimated by curve fitting using software and compared with the parasite growth in the compound-free medium.

[3] = test system: BGM-VN; assay: Cytotoxicity, MTT assay; format: cell-based; settings: 24 h incubation
Procedure: The compounds (20 μL) at various concentrations (400-1.0 μM) were placed in the 96-well plates, incubated with the cultured cells for 24 h under a 5%CO2 atmosphere at 37° C., and then a 3-(4,5-dimethylthiazol-2-yl)-2,5-diphenyltetrazolium bromide (MTT) solution ([…]; 20 μL/well for 3 h) was used to assess mitochondrial viability.
The supernatants were carefully removed and 100 μL of DMSO was added to each well and mixed to solubilize the formazan crystals. The optical density was determined at 570 nm. Cell viability was expressed as the percentage of the control absorbance in the untreated cells after subtracting the appropriate background. Each test was performed in triplicate in at least two different experiments.

[4] = test system: P. falciparum K1; assay: Antiplasmodial SYBR Green assay, multiresistant strain; format: cell-based, Plasmodium falciparum; settings: for Antiplasmodial activity: K1 resistant strain, highest dose 10 μM; for IC50: Plasmodium falciparum; for Selectivity index K1: ratio between MDL50 and IC50, K1
Procedure: Freshly synchronized sorbitol ring stages (Lambros and Vanderberg, 1979) were immediately incubated with the test compounds at various concentrations (10-0.152 μM or 1.0-0.0152 μM) previously solubilized in 0.05% dimethyl sulfoxide (DMSO) (v/v). Each test was performed in triplicate in at least two different experiments.
The antiplasmodial activity of the compounds was measured by DNA labeling assay using the fluorescent probe SYBR Green (Smilkstein et al., 2004).
as §1, with “background. Fluorescence was measured in a fluorimeter at 485/535 nm.” for “background.”
as §2

[5] = test system: P. berghei NK65; assay: P. berghei suppression test in mice; format: in vivo; settings: for Survival of mice compared to the untreated control: Mann-Whitney test; for Parasitemia % reduction day 5 / Parasitemia % reduction day 7 / Parasitemia % reduction day 9 / Parasitemia % reduction day 11 / Parasitemia % reduction day 13 / Parasitemia % reduction day 15: three days, relative to untreated mice
Procedure: A P. berghei NK65 strain was obtained as a donation from New York University and maintained through weekly blood draws.
On days 5 to 15 after parasite inoculation, blood was taken from the tail of each mouse and used to prepare thin smears that were fixed with methanol, stained with Giemsa and examined microscopically (1000×) to determine parasitemia.
Parasite growth inhibition was determined relative to parasitemia in the untreated mice, considered to be 100% parasite growth. […] The experiments were performed twice.

[6] = test system: CQ-resistant strains; settings: prior art; cited from earlier work
[7] = test system: Indochina I; settings: resistant strain Indochina I; verapamil; cited from earlier work
[8] = test system: P. falciparum K1; assay: Time course of inhibitory activity, microscopy of synchronized parasites; format: cell-based, Plasmodium falciparum; settings: 10 times IC50 of 3D7 applied to K1; 0, 12, 24, 36 h
Procedure: The time course of inhibitory activity of the CQ analogues was also evaluated. The compounds were incubated at a concentration 10 times higher than the IC50 values obtained for the P. falciparum 3D7 sensitive strain with synchronized parasites. Morphological changes were then observed by microscopy after 0, 12, 24 and 36 hours after synchronization (FIG. 3). Parasites sensitive (3D7 strain) and resistant (K1 strain) to CQ were tested in parallel, and the antimalarial CQ was used as a control.

[9] = 3D7, read-out: IC50 (nM ± SD) P.falciparum 3D7
[10] = K1, read-out: IC50 (nM ± SD) P.falciparum K1
[11] = 50 mg/kg orally, daily for three days
[12] = CQ-sensitive strain 3D7, SYBR Green, ± SD, read-out: IC50 (nM ± SD) P.falciparum 3D7
[13] = multiresistant strain K1, SYBR Green, ± SD, read-out: IC50 (nM ± SD) P.falciparum K1
[14] = CQ 20 mg/kg, daily for three days

Structure (SMILES)	IC50 [2, 9] [nM]	Selectivity index 3D7 [2]	MLD50 (μM) BGM-VN [3] [µM]	IC50 [4, 10] [nM]	Selectivity index K1 [4]	Survival [5, 11]	Survival of mice compared to the untreated control ([5]; 50 mg/kg orally)	Parasitemia day 5 [5, 11]	Parasitemia day 7 [5, 11]	Parasitemia % reduction day 7 ([5]; 50 mg/kg orally) [%]	Parasitemia day 9 [5, 11]	Parasitemia % reduction day 9 ([5]; 50 mg/kg orally) [%]	Parasitemia day 11 [5, 11]	Parasitemia % reduction day 11 ([5]; 50 mg/kg orally) [%]	Parasitemia day 13 [5, 11]	Parasitemia % reduction day 13 ([5]; 50 mg/kg orally) [%]	Parasitemia day 15 [5, 11]	Parasitemia % reduction day 15 ([5]; 50 mg/kg orally) [%]	further results
CCN(CC)CC#CCNc1ccnc2cc(Cl)ccc12 [DAQ]	46 ± 4	32195	1481 ± 39	50 ± 3	29620	28 ± 1	significantly higher	0.00	0.00	100	0.00	100	0.00	100	0.77	92	3.67	82	β-hematin inhibition, comparison [1]: lower than that of CQ; Selectivity index (SI) quoted in text ([2]; strain not stated): 55.750; Antiplasmodial activity [4]: active; Parasitemia % reduction day 5 ([5]; 50 mg/kg orally): 100%
NCCNc1ccnc2cc(Cl)ccc12 [CEQ]		655	179 ± 40			26 ± 6	significantly higher	0.00	0.00	100	0.00	100	0.00	100	0.57	94	4	80	IC50 [2, 12]: 273 ± 12 nM; IC50 [4, 13]: 218 ± 44 nM; Parasitemia % reduction day 5 ([5]; 50 mg/kg orally): 100%
CCN(CC)Cc1cc(Nc2ccnc3cc(Cl)ccc23)ccc1O [AQ]																			Activity against CQ-resistant strains (literature, words) [6]: cross-resistance with CQ
C#CCNc1ccnc2cc(Cl)ccc12 [PCQ]	377 ± 14	1079	407 ± 185	405 ± 32	1005	17 ± 8	not increased	1.04	4.83	10	5.75	8	7.5	32	7.0	32	34.5	0	Parasitemia % reduction day 5 ([5]; 50 mg/kg orally, 50 mg/kg): 70% and 73%
CCN(CC)CCCC(C)Nc1ccnc2cc(Cl)ccc12 (stereo not shown) [CQ, chloroquine, reference compound]	36 ± 12			177 ± 20															Improvement of IC50 after PfCRT inhibition [7]: 10 ×; Time course / stage of action, morphology [8]: did not block complete parasite development; Parasitemia until the last day of evaluation ([5]; CQ 20 mg/kg): did not show parasitemia; Survival ([5]; CQ 20 mg/kg): survived until the last day of the experiment; Survival [5, 14]: >30; Parasitemia day 5 [5, 14]: 0.00; Parasitemia % reduction day 5 ([5]; CQ 20 mg/kg): 100%; Parasitemia day 7 [5, 14]: 0.00; Parasitemia % reduction day 7 ([5]; CQ 20 mg/kg): 100%; Parasitemia day 9 [5, 14]: 0.00; Parasitemia % reduction day 9 ([5]; CQ 20 mg/kg): 100%; Parasitemia day 11 [5, 14]: 0.00; Parasitemia % reduction day 11 ([5]; CQ 20 mg/kg): 100%; Parasitemia day 13 [5, 14]: 0.00; Parasitemia % reduction day 13 ([5]; CQ 20 mg/kg): 100%; Parasitemia day 15 [5, 14]: 0.00; Parasitemia % reduction day 15 ([5]; CQ 20 mg/kg): 100%
O=C(O)CNc1ccnc2cc(Cl)ccc12 [GIQ]		Inactive	>1000		Inactive														β-hematin inhibition, comparison [1]: least potent; Antiplasmodial activity ([2]; 3D7, highest dose 10 μM): inactive; IC50 [2, 12]: > 10000 nM; Antiplasmodial activity [4]: inactive; IC50 [4, 13]: > 10000 nM
CCN(CC)CCCNc1ccnc2cc(Cl)ccc12 [AQ-13]																			Activity against CQ-resistant strains (literature, words) [6]: shows antimalarial activity
